According to patent publication US20050054531A1, “N-(phosphonomethyl) glycine (glyphosate) salt, a preparation process thereof, a concentrate composition and a phytotoxic formulation comprising it, and a method to combat weeds in a crop with a formulation thereto” (priority 2003, published 2005):
“Also recorded” adds a separate entry of the source.

Legend:
[1] = stated in the formulation process; cited from earlier work
[2] = test system: jungle rice and Aleppo grass; test: Field observations on activity rate: control of jungle rice and Aleppo grass (Example 3); assay type: in vivo; design: key: beginning of the effect (BE); death of the plant (DP); without symptoms (WS); details: visual, 5,000 cm^3/ha (SQUADRON 24% 10,000)
Procedure: (§1) Products were applied on a plot with maize stubble, preparing it for sowing wheat, where most abundant weeds were Aleppo grass (Sorghum halepense), water grass, jungle rice (Echinochloa crusgalli, Echinochloa colonum), and Bermuda grass (Cynodon dactylon).
(§2) The assessment was performed visually on 3, 4, 5, 8, and 10 days after application for jungle rice, and Aleppo grass, and 4,7,10, and 14 days for Bermuda grass, where the obtained effects were recorded and identified as follows: beginning of the effect (BE), death of the plant (DP), and without symptoms (WS).

[3] = test system: Bermuda grass; test: Field observations on activity rate: control of Bermuda grass (Example 3); assay type: in vivo, Cynodon dactylon; design: key: beginning of the effect (BE); death of the plant (DP); without symptoms (WS); details: visual, 5,000 cm^3/ha (SQUADRON 24% 10,000)
Procedure: as §1, §2

[4] = test system: Aleppo grass, Bermuda grass, Blite, Wild buckwheat, Nutgrass; test: Field comparison of salt, trunk mixture and Rondo on renovation ground prior to cane plantation (Example 4); assay type: in vivo; details: scale (1) out of control to (10) excellent control
Source text: APPLICATION: On renovation ground
TYPE OF TREATMENT: TOTAL (PRIOR TO CANE PLANTATION)
EXPERIMENTAL DESIGN: RANDOMIZED BLOCKS
VOLUME PER HECTARE: 120 liters

[5] = test system: Aleppo grass; test: Weed control in apple culture (Example 5): Aleppo grass; assay type: in vivo, Sorghum halepensis; details: 4 l/ha (1,440 g/ha 100% acid)
Procedure: (§3) Observations: Only one dose of each product was tested in three repetitions, on areas of 2 m×8 m=16 m^2.

[6] = test system: Bermuda grass; test: Weed control in apple culture (Example 5): Bermuda grass; assay type: in vivo, Cynodon dactylon; details: 4 l/ha (1,440 g/ha 100% acid)
Procedure: as §3

[7] = test system: Sunchillo (White aster); test: Weed control in apple culture (Example 5): Sunchillo; assay type: in vivo, Wedelia glauca; details: 4 l/ha (1,440 g/ha 100% acid)
Procedure: as §3

[8] = test system: Apple, Red Delicious; test: Phytotoxicity to the fruit tree (Example 5); assay type: in vivo; details: apple culture; 4 l/ha
Procedure: Variety: Hybrid. Red Delicious.
Phenologic status: with fruits of 2 cm diameter.
as §3

[9] = test system: Blite, Pigweed, and Aleppo grass; test: Control of soy weeds (Example 6): Blite, Pigweed, and Aleppo grass; assay type: in vivo, Amaranthus quitensis, Chenopodium album, Sorghum halepense
Source text: (§4) OBJECTIVE: The subject of the present assay comprises the assessment of different Glyphosate formulations on annual and perennial weeds in a resistant soy crop.
(§5) Crop data were as follows: • Species: Soya • Variety: A-6443 • See-planting time: Second. • Preceding crop: Wheat • Density of seeds planted: 33 grains/m^2 • Density of grown plants: 28 pl/m^2 • Space between furrows: 0.52 m. • Culture system: Direct seed-planting. • Phenologic status on application: R-4/5
(§6) Random blocks design was used, with four repetitions per treatment. The size of the parcels were: 4 m wide per 15 m long (60 m^2), totaling 240 m^2 per treatment.
(§7) The product was applied with a carbon dioxide (CO2) hand backpack, provided with four tips separated by 0.50 m each, with a plain fan-type 110 O2 pastille. Applied volume was of 110 1/ha, at a pressure of 45 lb/cm^2
(§8) The assessments were carried out visually by comparison with control non-applied parcels, and at 5, 10, 15, and 25 days after the application date en each case, where the intervals between each application from the beginning of the treatment were 5, 5, and 10 days, respectively.
(§9) Variance analysis (ANOVA) and Duncan Test were performed with the results obtained, in order to detect mean differences.

[10] = test system: Bermuda grass and Nutgrass; test: Control of soy weeds (Example 6): Bermuda grass and Nutgrass; assay type: in vivo, Cynodon dactylon, Cyperus rotundus
Source text: as §4, §5, §6, §7, §8, §9

[11] = test system: Soya A-6443; test: Phytotoxicity on the soy crop (Example 6); assay type: in vivo; details: 2,000 and 3,000 cm^2/ha; soy at R-4/5
Source text: as §4, §5, §7

[12] = Glyphosate triazolamine salt 2,000 / Rondo 2,500 cm^2/ha
[13] = Glyphosate triazolamine salt 3,000 / Rondo 5,000 cm^2/ha

Compound: O=C(O)CNCP(=O)(O)O [Glyphosate, N-(phosphonomethyl)-glycine]
- solubility in water (general statement) [1]: practically non-soluble in water

Compound: Nc1nc[nH]n1 [triazolamine, 1H-1,2,4-triazol-3-yl-amine]
- solubility in water (general statement) [1]: quite soluble

Compound: 1H-1,2,4-triazole-3-yl-amine N-(phosphonomethyl)-glycine salt [Glyphosate triazolamine salt]
- Control of jungle rice and Aleppo grass, 3 DAYS ([2]; 3 days after application): BE
- Control of jungle rice and Aleppo grass, 4 DAYS ([2]; 4 days after application): BE
- Control of jungle rice and Aleppo grass, 5 DAYS ([2]; 5 days after application): DP
- Control of jungle rice and Aleppo grass, 8 DAYS ([2]; 8 days after application): DP
- Control of jungle rice and Aleppo grass, 10 DAYS ([2]; 10 days after application): DP
- Control of Bermuda grass, 4 DAYS ([3]; 4 days after application): BE
- Control of Bermuda grass, 7 DAYS ([3]; 7 days after application): BE
- Control of Bermuda grass, 10 DAYS ([3]; 10 days after application): DP
- Control of Bermuda grass, 14 DAYS ([3]; 14 days after application): DP
- ASSAY OBSERVATIONS, control, 5 DAYS ([4]; 3 liters/ha): 4
- ASSAY OBSERVATIONS, control, 15 DAYS ([4]; 3 liters/ha): 7
- ASSAY OBSERVATIONS, control, 30 DAYS ([4]; 3 liters/ha): 9
- ASSAY OBSERVATIONS, control, 5 DAYS ([4]; 4 liters/ha): 4
- ASSAY OBSERVATIONS, control, 15 DAYS ([4]; 4 liters/ha): 7
- ASSAY OBSERVATIONS, control, 30 DAYS ([4]; 4 liters/ha): 10
- COUNT, averages of blocks, A (Aleppo grass) ([5]; 38 days after application): 65
- COUNT, averages of blocks, A (Aleppo grass) ([5]; 51 days after application): 85
- COUNT, averages of blocks, A (Aleppo grass) ([5]; 99 days after application): 95
- COUNT, averages of blocks, B (Bermuda grass) ([6]; 38 days after application): 70
- COUNT, averages of blocks, B (Bermuda grass) ([6]; 51 days after application): 80
- COUNT, averages of blocks, B (Bermuda grass) ([6]; 99 days after application): 90
- COUNT, averages of blocks, C (Sunchillo) ([7]; 38 days after application): 75
- COUNT, averages of blocks, C (Sunchillo) ([7]; 51 days after application): 90
- COUNT, averages of blocks, C (Sunchillo) ([7]; 99 days after application): 98
- phytotoxicity to the fruit tree [8]: No phytotoxicity to the fruit tree was observed
- Control % after 5 DAYS, data average by assessment date [9, 12]: 58.33%
- Control % after 10 DAYS, data average by assessment date [9, 12]: 100.00%
- Control % after 15 DAYS, data average by assessment date [9, 12]: 100.00%
- Control % after 25 DAYS, data average by assessment date [9, 12]: 100.00%
- Control % after 5 days, I [9, 12]: 60%
- Control % after 5 days, II [9, 12]: 55%
- Control % after 5 days, III [9, 12]: 60%
- Control % after 5 days, MEAN [9, 12]: 58.33%
- Control % after 10 days, I [9, 12]: 100%
- Control % after 10 days, II [9, 12]: 100%
- Control % after 10 days, III [9, 12]: 100%
- Control % after 10 days, MEAN [9, 12]: 100.00%
- Control % after 15 days, I [9, 12]: 100%
- Control % after 15 days, II [9, 12]: 100%
- Control % after 15 days, III [9, 12]: 100%
- Control % after 15 days, MEAN [9, 12]: 100.00%
- Control % after 5 DAYS, data average by assessment date [9, 13]: 95.00%
- Control % after 10 DAYS, data average by assessment date [9, 13]: 100.00%
- Control % after 15 DAYS, data average by assessment date [9, 13]: 100.00%
- Control % after 25 DAYS, data average by assessment date [9, 13]: 100.00%
- Control % after 5 days, I [9, 13]: 100%
- Control % after 5 days, II [9, 13]: 90%
- Control % after 5 days, III [9, 13]: 95%
- Control % after 5 days, MEAN [9, 13]: 95.00%
- Control % after 10 days, I [9, 13]: 100%
- Control % after 10 days, II [9, 13]: 100%
- Control % after 10 days, III [9, 13]: 100%
- Control % after 10 days, MEAN [9, 13]: 100.00%
- Control % after 15 days, I [9, 13]: 100%
- Control % after 15 days, II [9, 13]: 100%
- Control % after 15 days, III [9, 13]: 100%
- Control % after 15 days, MEAN [9, 13]: 100.00%
- Control % after 10 days, I (TABLE NO. 4) [9, 12]: 100%
- Control % after 10 days, II (TABLE NO. 4) [9, 12]: 100%
- Control % after 10 days, III (TABLE NO. 4) [9, 12]: 100%
- Control % after 10 days, MEAN (TABLE NO. 4) [9, 12]: 100.00%
- Control % after 10 days, I (TABLE NO. 4) [9, 13]: 100%
- Control % after 10 days, II (TABLE NO. 4) [9, 13]: 100%
- Control % after 10 days, III (TABLE NO. 4) [9, 13]: 100%
- Control % after 10 days, MEAN (TABLE NO. 4) [9, 13]: 100.00%
- Control % after 5 days, I [10, 12]: 60%
- Control % after 5 days, II [10, 12]: 50%
- Control % after 5 days, III [10, 12]: 50%
- Control % after 5 days, MEAN [10, 12]: 53.00%
- Control % after 10 days, I [10, 12]: 75%
- Control % after 10 days, II [10, 12]: 90%
- Control % after 10 days, III [10, 12]: 90%
- Control % after 10 days, MEAN [10, 12]: 85.00%
- Control % after 15 days, I [10, 12]: 85%
- Control % after 15 days, II [10, 12]: 90%
- Control % after 15 days, III [10, 12]: 90%
- Control % after 15 days, MEAN [10, 12]: 88.33%
- Control % after 25 days, I [10, 12]: 85%
- Control % after 25 days, II [10, 12]: 90%
- Control % after 25 days, III [10, 12]: 90%
- Control % after 25 days, MEAN [10, 12]: 88.33%
- Control %, 5 DAYS, data average by assessment date [10, 12]: 53.33 B %
- Control %, 10 DAYS, data average by assessment date [10, 12]: 85.00 BC %
- Control %, 15 DAYS, data average by assessment date [10, 12]: 88.33 B %
- Control %, 25 DAYS, data average by assessment date [10, 12]: 83.33 B %
- Control % after 5 days, I [10, 13]: 70%
- Control % after 5 days, II [10, 13]: 80%
- Control % after 5 days, III [10, 13]: 75%
- Control % after 5 days, MEAN [10, 13]: 75.00%
- Control % after 10 days, I [10, 13]: 100%
- Control % after 10 days, II [10, 13]: 100%
- Control % after 10 days, III [10, 13]: 100%
- Control % after 10 days, MEAN [10, 13]: 100.00%
- Control % after 15 days, I [10, 13]: 100%
- Control % after 15 days, II [10, 13]: 100%
- Control % after 15 days, III [10, 13]: 100%
- Control % after 15 days, MEAN [10, 13]: 100.00%
- Control % after 25 days, I [10, 13]: 100%
- Control % after 25 days, II [10, 13]: 100%
- Control % after 25 days, III [10, 13]: 100%
- Control % after 25 days, MEAN [10, 13]: 100.00%
- Control %, 5 DAYS, data average by assessment date [10, 13]: 75.00 A %
- Control %, 10 DAYS, data average by assessment date [10, 13]: 100.00 A %
- Control %, 15 DAYS, data average by assessment date [10, 13]: 100.00 A %
- Control %, 25 DAYS, data average by assessment date [10, 13]: 100.00 A %
- final control over Bermuda grass and nutgrass ([10]; higher dosage treatments: Glyphosate triazolamine salt 3,000 / Rondo 5,000 cm^2/ha): total control
- phytotoxicity on soy leaves / soy crops [11]: showed phytotoxicity problems on soy leaves; also recorded: showed phytotoxicity over soy crops
